Results reported in patent publication US5037852A, “Cinnamoylamide derivatives” (Ono Pharmaceutical Co., Ltd., priority 1987, dated 1991).

Target: 5α-reductase
Experiment: Inhibitory activity on 5α-reductase in vitro (rat prostate enzyme, [4-C14]-testosterone conversion to dihydrotestosterone)
Format: biochemical
Settings: male rat prostate enzyme; [4-C14]-testosterone 1.5 n mol, NADPH; 60 mins at 37° C.; pH 7.4 buffer
Experimental: The test was carried out with reference to the method of J. Shimazaki et al [See Endocrinol, Japon., 18, 179 (1971).]
Male rat's prostate (4 g) was homogenized with its triple volume of 0.1M HEPES buffer (PH 7.4) including 0.25M cane sugar and was centrifuged at 3000 r.p.m. for 10 mins.
The precipitate was suspended into the buffer solution described above (10 ml), and the suspension was centrifuged at 3000 r.p.m for 5 mins. The resulting precipitated was suspended in the buffer solution (3 ml) described above and was used as a sauce of enzyme.
A reaction mixture (total volume 0.1 ml) of [4-C^14 ]-testosterone (1.5n mol, 1.5×10^5 cpm), NADPH (0.5 μmol), enzyme solution (0.03 ml) described above and several kinds of concentration of the compounds in the present invention was incubated for 60 mins at 37° C. Enzyme reaction was quenched by addition of a mixture (0.4 ml) of chloroform and methanol (1:2), and the mixture was centrifuged at 2000 r.p.m for 3 mins. The supernatant (50 μl) was spotted on silica gel thin layer plate. The spot on the plate was developed with a mixture of chloroform, methanol and acetic acid (99.2:0.6:0.2). Radioactivity of dihydrotestosteron generated on plate was measured by TLC scanner of radio-autography and inhibitory ratio was calculated.

SMILES	IC50 [nM]
C/C(=C\C(=O)Nc1ccccc1OCCCC(=O)O)c1ccc(CC(C)(C)C)cc1 [1 (b)]	370
CCC(CC)Cc1ccc(/C(C)=C/C(=O)Nc2ccccc2OCCCC(=O)O)cc1 [1 (c), 4-[2-{4-(2-ethylbutyl)-β-methylcinnamoylamino}phenoxy]butanoic acid]	300
CCCC(C)Cc1ccc(/C(C)=C/C(=O)Nc2ccccc2OCCCC(=O)O)cc1 (stereo not drawn) [1 (d), 4-[2-{4-(2-methylpentyl)-β-methylcinnamoylamino}phenoxy] butanoic acid]	340
CCCCCOc1ccc(/C(C)=C/C(=O)Nc2ccccc2OCCCC(=O)O)c(F)c1 [1 (e), 4-[2-(2-fluoro-4-pentyloxy-β-methylcinnamoylamino)phenoxy]butanoic acid]	280
CCCCSc1ccc(/C(C)=C/C(=O)Nc2ccccc2OCCCC(=O)O)cc1 [1 (f), 4-[2-(4-butylthio-β-methylcinnamoylamino)phenoxy]butanoic acid]	430
C/C(=C\C(=O)Nc1ccccc1OCCCC(=O)O)c1ccc(CC2CCCCC2)cc1 [1 (h), 4-[2-(4-cyclohexylmethyl-β-methylcinnamoylamino)phenoxy] butanoic acid]	280
C/C(=C\C(=O)Nc1ccccc1OCCCC(=O)O)c1ccc(CCCCc2ccccc2)cc1 [1 (i), 4-[2-{4-(4-phenylbutyl)-β-methylcinnamoylamino)phenoxy] butanoic acid]	320

Now those with a lower IC50, led by results:

IC50 [nM]	SMILES
160	CCCCCc1cccc(/C(C)=C/C(=O)Nc2ccccc2OCCCC(=O)O)c1 [1 (a), 4-[2-(3-pentyl-β-methylcinnamoylamino)phenoxy]butanoic acid]
110	C/C(=C\C(=O)Nc1ccccc1OCCCC(=O)O)c1ccc(CC2CCC2)cc1 [1 (g), 4-[2-(4-cyclobutylmethyl-β-methylcinnamoylamino)phenoxy] butanoic acid]
250	C/C(=C\C(=O)Nc1ccccc1OCCCC(=O)O)c1ccc(Oc2ccccc2)cc1 [1 (j), 4-[2-(4-phenoxy-β-methylcinnamoylamino)phenoxy]butanoic acid]
240	CCCCCc1cccc(/C=C(\C)C(=O)Nc2ccccc2OCCCC(=O)O)c1 [1 (k), 4-[2-(3-pentyl-α-methylcinnamoylamino)phenoxy]butanoic acid]
230	C/C(=C\c1ccc(CCc2ccccc2)cc1)C(=O)Nc1ccccc1OCCCC(=O)O [1 (l), 4-[2-(4-phenethyl-α-methylcinnamoylamino)phenoxy]butanoic acid]
200	CCCCCc1ccc(/C(C)=C/C(=O)Nc2ccccc2OCCCC(=O)O)cc1 [Example 1, 4-[2-(4-pentyl-β-methylcinnamoylamino)phenoxy]butanoic acid]
